The record followed here is patent US6365100B1, “Polymethylenepolyamine dipropionamides as environmentally safe inhibitors of the carbon corrosion of iron” (CECA, S.A., priority 1997, dated 2002).

Data set [1] concerns Photobacterium phosphoreum. The data set can be described thus: Microtox bacterial ecotoxicity test (AFNOR NF T90-320). The class given is cell-based. The conditions noted are these: lethal concentration to destroy 50% of the population in 15 minutes. Here is the method:
(§1) The ecotoxicity measurements for various polymethylenepolyaminedipropionamides were carried out on a bacterium (Photobacterium phosphoreum) and on an alga (Skeletonema costatum) . The bacterial test is the Microtox test carried out according to AFNOR standard NF T90-320. The toxicities on Skeletonema costatum are determined according to the method ISO/DIS 10253. The Microtox toxicity is expressed as LC50 (lethal concentration in mg/l to destroy 50% of the population in 15 minutes). On Skeletonema costatum, the toxicity is expressed as EC50 (effective concentration in mg/l to inhibit the growth of 50% of the population in 72 hours).

Data set [2] can be described thus: Carbonic corrosion-inhibitory efficiency by polarization resistance in CO2-saturated NACE-type solution. The conditions noted are these: 25° C., reading after 6 hours. On the procedure: The experimental procedures intended to evaluate the corrosion-inhibitory efficiencies in carbon dioxide-saturated medium of the products used (A, B and C of Example 1) are described in this example. In order to simulate the corrosive medium, a solution of NACE type containing 50 g/l of NaCl and 0.25 mg/l of acetic acid, saturated by continuously bubbling CO2 through, depending on the case, and with inhibitor added or not added, is used.
The process is performed in a thermostatically regulated 600 ml Pyrex cell including, besides a gas inlet and outlet, three electrodes coupled to the cell by ground joints, namely a carbon-steel working electrode whose surface of contact with the corrosive solution is 1 cm^2, a saturated calomel reference electrode and a platinum counterelectrode having a very large surface of contact with the corrosive solution. 500 ml of the corrosive solution is placed in the cell, as control or with inhibitor added, after which the counterelectrode and the reference electrode are put in place. The solution is de-aerated by bubbling nitrogen through for one hour and is then saturated with CO2 by bubbling for at least one hour. In order to ensure good saturation with CO2, this gas is left to bubble through throughout the experiment.
The rate of corrosion Vcorr is measured by a method of measuring polarization resistance, which is known in the art. The corrosion rate reading is taken after stabilization for 6 hours.
The percentage of protection (%P) which allows the corrosion-inhibitory efficiency of the test product to be expressed is given by the relationship:
%P={(V^0corr−V^icorr)/V^0corr}×100
where V^0corr=rate of corrosion without inhibitor
V^icorr=rate of corrosion in the presence of a dose of inhibitor.
Table II collates the percentages of protection at room temperature (25° C.) as a function of the nature of the polymethylenepolyaminodipropionamides used and their dose.

Data set [3] has as its system Skeletonema costatum. The data set can be described thus: Algal ecotoxicity test (ISO/DIS 10253). The class given is cell-based. The conditions noted are these: concentration to inhibit the growth of 50% of the population in 72 hours. On the procedure:
as §1

As for `NC(=O)CCNCCNCCNCCNCCC(N)=O` [Molecule B, H2NCO—(CH2)2—NH—[—(CH2)2 —NH—]3—CH2)2—CONH2], the “Toxicity Microtox (LC50)” value in data set [1] is 104 µg/mL. Also, the “PERCENTAGE OF PROTECTION (%)” value was 34% in data set [2] (dose 10 ppm), 43% in data set [2] (dose 20 ppm), 48% in data set [2] (dose 50 ppm) and 56% in data set [2] (dose 100 ppm).
The like results for `NC(=O)CCNCCNCCNCCC(N)=O` [Molecule A, H2NCO—(CH2)2—NH—[—(CH2)2 —NH—]2—(CH2)2—CONH2 (RN 92009-86-4)] were, in that order, 128 µg/mL, 24%, 44%, 48% and 53%.
Take `NC(=O)CCNCCCNCCNCCCNCCC(N)=O` [Molecule C, H2NCO—(CH2)2—NH—(CH2)3—NH—(CH2)2—NH—(CH2)3—NH—(CH2)2—CONH2]: the “Toxicity Microtox (LC50)” value in data set [1] was determined as 127 µg/mL. In data set [3], the “Toxicity Skeletonema costatum (EC50)” value was in the range of 5 to 10 µg/mL. The “PERCENTAGE OF PROTECTION (%)” value is reported as 63% in data set [2] (dose 10 ppm), 70% in data set [2] (dose 20 ppm), 73% in data set [2] (dose 50 ppm) and 82% in data set [2] (dose 100 ppm).
